From US11858925B2, “GAS41 inhibitors and methods of use thereof” (The Regents of the University of Michigan, priority 2020, dated 2024)
Read-outs that look alike come from different tables or passages of the source.

Key:
[1] = target: T1, His6-tagged full-length GAS41 (Homo sapiens, UniProt O95619); assay: AlphaScreen competition assay with full-length GAS41 and biotin-H3K23crK27cr; assay type: binding
T1 construct: using His6-tagged full-length GAS41 and biotinylated-, di-crotonylated-H3 peptide
Description: An AlphaScreen competition assay was also developed using His6-tagged full-length GAS41 and biotinylated-, di-crotonylated-H3 peptide (biotin-H3K23crK27cr). For full-length protein competition experiments, 100 nM MOCR-his6-Gas41 protein was incubated with 100× competitor in 50 mM HEPES pH 7.5, 100 mM NaCl, 1 mM TCEP, 0.05% BSA, 0.01% Tween-20 for 1 hour at 1% DMSO in a 96-well ½-Area AlphaPlate. H3K23crK27cr-biotin was added to a final concentration of 25 nM and incubated for 1 hour. Nickel Chelate Acceptor AlphaScreen beads were added to a final concentration of 10 μg/mL and incubated for 1 hour. Streptavidin Donor AlphaScreen beads were added to a final concentration of 10 μg/mL and incubated for 2 hours. Alpha signal was measured on a Pherastar plate reader.

H1299 cells = assay: Growth inhibition of H1299 cells; assay type: cell-based; conditions: for GI50: Homo sapiens
Description: (§1) To investigate cellular activity of GAS41 inhibitors, H1299 cells were treated with monomeric Compound 88 and dimeric Compound 221 for 4 days. […] To determine whether growth inhibition is dependent on presence of GAS41 we developed A549 GAS41 knocked-out cells using the CRISPR/CAS9 system. We found GAS41-KO were viable but grew more slowly compare with parental A549 cells and had reduced growth by ˜70% at day 14 (FIG. 4B). […] Next, we evaluated the effect of Compound 221 on growth of two NSCLC cell lines H1299 and H1933 with GAS41 amplification. […] Such effect correlates closely with activity of Compound 221 in NanoBit assay (FIG. 3). To further validate on-target activity of Compound 221, we tested expression of GAS41 target genes in H1299 (Hsu 2018). […] Altogether, dimeric inhibitor Compound 221 reduces binding of GAS41 to acetylated H3.3 in cells and induces on-target growth inhibition in NSCLCs lines.

[2] = target: T2, 15N-labeled GAS41 YEATS domain (Homo sapiens, UniProt O95619); assay: 1H-15N HSQC NMR binding to 15N-labeled GAS41 YEATS domain; conditions: 60 μM 15N-labeled GAS41 YEATS; 60 μM Compound 85 or 30 μM Compound 223
T2 construct: GAS41 YEATS domain were also compared by NMR
Description: FIGS. 2A-2C show data for activities of compounds disclosed herein. A) Results of a dimerization assay to determine bivalent inhibitor-induced dimerization of GAS41 YEATS domain, as described in Example 6. B) ^1H-^15N HSQC spectrum of 60 μM ^15N-labeled GAS41 YEATS domain (black) and in presence of 60 μM Compound 85 (red). C) ^1H-^15N HSQC spectrum of 60 μM ^15N-labeled GAS41 YEATS domain in presence of 30 μM Compound 223 (red).
(§2) The signal was further decreased at highest compound concentrations, and indicates saturation of YEATS domain via independent inhibitor molecules (Hook effect).

GAS41 YEATS domain = target: T3, GAS41 YEATS domain (Homo sapiens, UniProt O95619); assay: AlphaScreen dimerization assay with his6-Gas41(13-158) and avi-Gas41-YEATS; assay type: binding; conditions: titration of his6-Gas41(13-158) and avi-Gas41-YEATS; Hook effect at highest concentrations
T3 construct: 500 nM his6-Gas41(13-158) and 250 nM avi-Gas41-YEATS were incubated; His-tagged and biotin-labeled Avi-tagged GAS41 YEATS domain constructs
Description: An AlphaScreen assay based on His-tagged and biotin-labeled Avi-tagged GAS41 YEATS domain constructs was developed. For dimerization experiments, 500 nM his6-Gas41(13-158) and 250 nM avi-Gas41-YEATS were incubated in 50 mM HEPES pH 7.5, 100 mM NaCl, 1 mM TCEP, 0.05% BSA, 0.01% Tween-20 in a 96-well ½-Area AlphaPlate incubated for 30 minutes. Compounds 221 and 223 were added to a final concentration of 250 nM at 1% DMSO. Nickel Chelate Acceptor AlphaScreen beads were added to a final concentration of 10 μg/mL and incubated for 1 hour. Streptavidin Donor AlphaScreen beads were added to a final concentration of 10 μg/mL and incubated for 2 hours. For competition experiments with the dimeric complex, 500 nM his-Gas41(13-158) and 250 nM avi-Gas41-YEATS were incubated in assay buffer with 250 nM dimeric inhibitor for 30 minutes before the addition of monomeric competitor. AlphaScreen beads were added as in previous experiments. Alpha signal was measured on a Pherastar plate reader.
as §2

A549 cells = assay: Growth inhibition of A549 cells; assay type: cell-based; conditions: Homo sapiens, 12 μM concentration
Description: as §1

A549 GAS41-KO cells = assay: Growth of A549 GAS41 knocked-out cells; assay type: cell-based
Description: as §1

[3] = target: T4, GAS41-WT interaction with H3.3 (Homo sapiens, UniProt O95619); assay: NanoBiT assay, LgBiT-GAS41-WT and SmBiT-H3.3 in HEK293T cells; assay type: cell-based; conditions: 24 h treatment, 293T cells, estimated, read-out: IC50, inhibition of the luminescence signal
T4 construct: expressed in transfected cells; host or cells: HEK293T
Description: A NanoBiT assay (Promega Corporation, Madison, WI) was developed to detect inhibition of protein-protein interaction in HEK293T cells by compounds. GAS41-WT and GAS41-W93A mutant were cloned into pBiT1.1-C[TK/LgBiT] vector. SmBiT-H3.3 was purchased from Promega. HEK293T cells (4×10E5) were plated into 6-well plates (DMEM with 10% FBS) and incubated for 5 h. The LgBiT-GAS41 and SmBiT-H3.3 plasmids were co-transfected using FuGENE HD for 42 h. 5×10^4 cells were transferred into 96-well white plates (DMEM with 10% FBS and 1% Penicillin and Streptomycin) and treated with compounds for 24 h. After the Nano-Glo Live Cell Reagent was added to each well, the luminescence was measured immediately using PHERAstar FS instrument.
Introduction of a point mutation W93A in LgBit GAS41 abolishing histone recognition (Hsu 2018) largely diminished luminescence signal and validates the NanoBit assay.

H1933 cells = assay: Growth inhibition of H1933 cells; assay type: cell-based; conditions: 336 h, day 14
Description: as §1

[4] = AlphaScreen assay, bin Less than 500 nM, read-out: GAS41 YEATS inhibitor IC50

T1 sequence (O95619 whole entry): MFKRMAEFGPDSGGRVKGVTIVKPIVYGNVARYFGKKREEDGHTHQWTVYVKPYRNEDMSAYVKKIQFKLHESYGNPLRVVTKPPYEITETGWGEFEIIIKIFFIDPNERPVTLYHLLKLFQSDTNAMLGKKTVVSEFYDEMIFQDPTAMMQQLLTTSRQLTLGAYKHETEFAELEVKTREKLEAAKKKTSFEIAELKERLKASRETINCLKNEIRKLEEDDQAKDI
T2 sequence (O95619 15-158 limits assumed): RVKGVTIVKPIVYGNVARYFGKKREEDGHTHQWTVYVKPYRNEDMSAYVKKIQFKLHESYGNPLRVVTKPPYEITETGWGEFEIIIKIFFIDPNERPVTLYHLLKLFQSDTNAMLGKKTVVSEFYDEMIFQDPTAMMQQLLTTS
T3 sequence (O95619 13-158 limits assumed): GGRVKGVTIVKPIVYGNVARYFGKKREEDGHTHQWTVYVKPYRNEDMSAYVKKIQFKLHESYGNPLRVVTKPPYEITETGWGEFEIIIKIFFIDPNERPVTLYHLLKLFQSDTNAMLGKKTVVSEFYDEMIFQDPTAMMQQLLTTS
T3 sequence (O95619 15-158 limits assumed): as the sequence (O95619 15-158 limits assumed) above
T4 sequence (O95619 whole entry): as the sequence (O95619 whole entry) above

SMILES | IC50 [1, 4] [nM] | other results
O=C(Nc1ccc(C(=O)N2CC(c3nc4ccccc4s3)C2)s1)[C@@H]1CCCN1 [Compound 88] | – | dose dependent growth inhibition (H1299 cells; H1299 cells treated for 4 days): Only the dimer Compound 221 induces dose dependent growth inhibition
CC(C)(C)c1ccc(C(=O)N2CCCC2)s1 [Compound 134, (5-(tert-butyl)thiophen-2-yl)(pyrrolidin-1-yl)methanone] | – | IC50 ([1]; AlphaScreen, 100 nM MOCR-his6-Gas41, 25 nM H3K23crK27cr-biotin, read-out: IC50): 73000 nM
CC(=O)NCCCCCCN(Cc1cccc(-c2cnc(C3CN(C(=O)c4ccc(NC(=O)C5CCCN5)s4)C3)s2)c1)Cc1cccc(-c2cnc(C3CN(C(=O)c4ccc(NC(=O)[C@@H]5CCCN5)s4)C3)s2)c1 (stereo partly shown) [Compound 213] | < 500 | –
O=C(Nc1ccc(C(=O)N2CC(c3nccs3)C2)s1)[C@@H]1CCCN1 [Compound 85, (S)—N-(5-(3-(thiazol-2-yl)azetidine-1-carbonyl)thiophen-2-yl)pyrrolidine-2-carboxamide] | – | broadening of NMR signals (formation of a larger dimeric complex) [2]: not monomeric Compound 85
CN(Cc1cccc(-c2cnc(C3CN(C(=O)c4ccc(NC(=O)C5CCCN5)s4)C3)s2)c1)Cc1cccc(-c2cnc(C3CN(C(=O)c4ccc(NC(=O)[C@@H]5CCCN5)s4)C3)s2)c1 (stereo partly shown) [Compound 212] | < 500 | –
O=C(Nc1ccc(C(=O)N2CC(c3ncc(-c4cccc(CNCc5cccc(-c6cnc(C7CN(C(=O)c8ccc(NC(=O)[C@@H]9CCCN9)s8)C7)s6)c5)c4)s3)C2)s1)C1CCCN1 (stereo partly shown) [Compound 211] | < 500 | –
O=C(Nc1ccc(C(=O)N2CC(c3ncc(-c4cccc(COCc5cccc(-c6cnc(C7CN(C(=O)c8ccc(NC(=O)[C@@H]9CCCN9)s8)C7)s6)c5)c4)s3)C2)s1)C1CCCN1 (stereo partly shown) [Compound 210] | < 500 | –

Now from value to compound, other results behind:

IC50 [1, 4] [nM] | SMILES | other results
< 500 | O=C(Nc1ccc(C(=O)N2CC(c3nc4ccccc4s3)C2)s1)[C@@H]1C[C@@H](OCCCCCCCCO[C@H]2CN[C@H](C(=O)Nc3ccc(C(=O)N4CC(c5nc6ccccc6s5)C4)s3)C2)CN1 [Compound 219] | –
< 500 | O=C(Nc1ccc(C(=O)N2CC(c3nc4ccccc4s3)C2)s1)[C@@H]1C[C@@H](OCCCCCCO[C@H]2CN[C@H](C(=O)Nc3ccc(C(=O)N4CC(c5nc6ccccc6s5)C4)s3)C2)CN1 [Compound 218] | –
< 500 | O=C(Nc1ccc(C(=O)N2CC(c3nccs3)C2)s1)[C@@H]1C[C@@H](OCc2ccc(CO[C@H]3CN[C@H](C(=O)Nc4ccc(C(=O)N5CC(c6nccs6)C5)s4)C3)cc2)CN1 [Compound 222] | –
< 500 | O=C(Nc1ccc(C(=O)N2CC(c3nccs3)C2)s1)[C@@H]1C[C@@H](OCCCCCCCCO[C@H]2CN[C@H](C(=O)Nc3ccc(C(=O)N4CC(c5nccs5)C4)s3)C2)CN1 [Compound 220] | –
< 500 | O=C(Nc1ccc(C(=O)N2CC(c3nccs3)C2)s1)[C@@H]1C[C@@H](OCCCCCCO[C@H]2CN[C@H](C(=O)Nc3ccc(C(=O)N4CC(c5nccs5)C4)s3)C2)CN1 [Compound 223, (2S,2′S,4R,4′R)-4,4′-(hexane-1,6-diylbis(oxy))bis(N-(5-(3-(thiazol-2-yl)azetidine-1-carbonyl)thiophen-2-yl)pyrrolidine-2-carboxamide)] | broadening of NMR signals (formation of a larger dimeric complex) [2]: induces very substantial broadening of signals; luminescence signal reflecting formation of the dimeric complex (GAS41 YEATS domain): increase of luminescence signal
< 500 | CN(C(=O)C1C[C@@H](OCCCCCCO[C@H]2CN[C@H](C(=O)N(C)c3ccc(C(=O)N4CC(c5nccs5)C4)s3)C2)CN1)c1ccc(C(=O)N2CC(c3nccs3)C2)s1 (stereo partly shown) [Compound 217] | –
< 500 | O=C(Nc1ccc(C(=O)N2CC(c3nc4ccccc4s3)C2)s1)[C@@H]1C[C@@H](OCCCCO[C@H]2CN[C@H](C(=O)Nc3ccc(C(=O)N4CC(c5nc6ccccc6s5)C4)s3)C2)CN1 [Compound 221] | inhibition at 12 µM (A549 cells): ~40%; effect on growth (A549 GAS41-KO cells): no effect; IC50 [3]: 6000 nM; GI50 (H1299 cells; NCI-H1299, 96 h, H1299 cells treated for 4 days): ~3000 nM; GI50 (H1299 cells; NCI-H1299, 336 h, H1299 cells, day 14): ~6000 nM; GI50 (H1933 cells): ~6000 nM
